For this experiment, the system named is T cell blast formation in human blood. The experiment in a line: In vitro inhibition of T cell blast formation in human blood (human whole blood blast formation, PHA stimulated, flow cytometry). The format is cell-based. The conditions noted are these: 72 hours, mean where multiple measurements. The method, then: Cells are collected after a 72 hours culture period at 37° C., supernatant is removed by centrifugation and red blood cells are lysed by a hypotonic buffer. The remaining white blood cells are collected in PBS containing propidium iodide. The blast formation is analyzed using a benchtop flow cytometer (Cytoron, Ortho) equipped with an argon-ion laser. […] When multiple measurements were performed, a mean value was calculated for the percentage inhibition of T cell blast formation.
Background: In flow cytometry, cells or beads pass a laser one at a time.

[1] abbreviates: Test Dose 1 × 10^−6 (unit not given).
The mark [2] stands for this setting: Test Dose 3 × 10^−7 (unit not given).
Setting [3] is: Test Dose 1 × 10^−5 (unit not given).

As to `NC(c1ccccc1)c1ccc(NC(=O)[C@@H]2CC(c3cccnc3)=NO2)cc1` (stereo partly drawn) [Compound 206, [5S-(B)]-N-[4-(aminophenylmethyl)phenyl]4,5-dihydro-3-(3-pyridinyl)-5-isoxazolecarboxamide], the “% Inhibition of T cell blast formation” value under setting [1] stood at 66%.
Same read-out and setting: with `O=C(Nc1ccc(C(Nc2cccc(F)c2)c2ccccc2)cc1)C1CC(c2cccnc2)=NO1` (stereo not drawn) [Compound 214] the figure was 62%; with `O=C(Nc1ccc(C(Nc2cccc(Cl)c2)c2ccccc2)cc1)C1CC(c2cccnc2)=NO1` (stereo not drawn) [Compound 216], 70%.
Take `O=C(Nc1ccc(C(Nc2ccc(C(F)(F)F)cc2Br)c2ccccc2)cc1)C1CC(c2cccnc2)=NO1` (stereo not drawn) [Compound 218]: under setting [2], the “% Inhibition of T cell blast formation” value is 33%.
For the compound `O=C(Nc1ccc(C(c2ccccc2)N2CCOCC2)cc1)C1CC(c2cccnc2)=NO1` (stereo not drawn) [Compound 221], the “% Inhibition of T cell blast formation” value under setting [1] is on record as 63%.
With `O=C(NCCc1ccccc1)c1ccc(NC(=O)C2CC(c3cccnc3)=NO2)cc1` (stereo not drawn) [Compound 258], the “% Inhibition of T cell blast formation” value under setting [1] is recorded as 59%.
Turning to `CC(C)(NC(=O)c1ccc(NC(=O)C2CC(c3cccnc3)=NO2)cc1)c1ccccc1` (stereo not drawn) [Compound 259], the “% Inhibition of T cell blast formation” value under setting [1] is reported as 51%.
Still for that read-out and setting: with `O=C(Nc1cccnc1)c1ccc(NC(=O)C2CC(c3cccnc3)=NO2)cc1` (stereo not drawn) [Compound 263] the figure was 59%.
For `O=C(Nc1cccc2ccccc12)c1ccc(NC(=O)C2CC(c3cccnc3)=NO2)cc1` (stereo not drawn) [Compound 266], the “% Inhibition of T cell blast formation” value under setting [3] was 85%.
On to `O=C(NCCc1ccco1)c1ccc(NC(=O)C2CC(c3cccnc3)=NO2)cc1` (stereo not drawn) [Compound 268], for which the “% Inhibition of T cell blast formation” value under setting [1] was found to be 58%.
In the case of `O=C(NCc1ccccc1Br)c1ccc(NC(=O)C2CC(c3cccnc3)=NO2)cc1` (stereo not drawn) [Compound 269], the “% Inhibition of T cell blast formation” value under setting [1] stood at 67%.
On the same count and under the same terms, with `O=C(NCc1ccc(F)cc1)c1ccc(NC(=O)C2CC(c3cccnc3)=NO2)cc1` (stereo not drawn) [Compound 270] the figure was 71%; with `COc1cccc(CNC(=O)c2ccc(NC(=O)C3CC(c4cccnc4)=NO3)cc2)c1` (stereo not drawn) [Compound 272], 67%; with `Cc1ccc(CNC(=O)c2ccc(NC(=O)C3CC(c4cccnc4)=NO3)cc2)cc1` (stereo not drawn) [Compound 273], 62%.
For the compound `COc1ccc(CNC(=O)c2ccc(NC(=O)C3CC(c4cccnc4)=NO3)cc2)c(OC)c1` (stereo not drawn) [Compound 274], under setting [1], the “% Inhibition of T cell blast formation” value is recorded as 71%.
Still for that read-out and setting: with `O=C(NCc1c(F)cccc1F)c1ccc(NC(=O)C2CC(c3cccnc3)=NO2)cc1` (stereo not drawn) [Compound 279] the figure was 74%; with `COc1cc(CNC(=O)c2ccc(NC(=O)C3CC(c4cccnc4)=NO3)cc2)cc(OC)c1OC` (stereo not drawn) [Compound 281], 74%; with `COc1ccccc1CNC(=O)c1ccc(NC(=O)C2CC(c3cccnc3)=NO2)cc1` (stereo not drawn) [Compound 285], 72%.
Consider `CN(C)c1ccc(CNC(=O)c2ccc(NC(=O)C3CC(c4cccnc4)=NO3)cc2)cc1` (stereo not drawn) [Compound 286], for which the “% Inhibition of T cell blast formation” value under setting [2] is 49%.
As to `O=C(NCc1cccc(C(F)(F)F)c1)c1ccc(NC(=O)C2CC(c3cccnc3)=NO2)cc1` (stereo not drawn) [Compound 288], the “% Inhibition of T cell blast formation” value under setting [1] amounted to 53%.
The same measure, in the same setting: with `O=C(NCc1cccs1)c1ccc(NC(=O)C2CC(c3cccnc3)=NO2)cc1` (stereo not drawn) [Compound 289] the figure was 64%.
Take `COc1ccc(CNC(=O)c2ccc(NC(=O)C3CC(c4cccnc4)=NO3)cc2)cc1` (stereo not drawn) [Compound 290]: the “% Inhibition of T cell blast formation” value under setting [1] was 67%.
As for `O=C(NCc1cnc2ccccc2c1)c1ccc(NC(=O)C2CC(c3cccnc3)=NO2)cc1` (stereo not drawn) [Compound 291], the “% Inhibition of T cell blast formation” value under setting [1] was 78%.
For `Nc1cccc(F)c1CNC(=O)c1ccc(NC(=O)C2CC(c3cccnc3)=NO2)cc1` (stereo not drawn) [Compound 292], the “% Inhibition of T cell blast formation” value under setting [2] turned out to be 40%.
Same read-out and setting: with `O=C(NCc1ccc2c(c1)OCO2)c1ccc(NC(=O)C2CC(c3cccnc3)=NO2)cc1` (stereo not drawn) [Compound 295] the figure was 35%.
`CON=C(c1ccccc1)c1ccc(NC(=O)C2CC(c3cccnc3)=NO2)cc1` (stereo not drawn) [Compound 303]: under setting [1], the “% Inhibition of T cell blast formation” value is 78%.
Regarding `O=C(Nc1ccc(C(=O)N2CCC(O)(Cc3ccccc3)CC2)cc1)C1CC(c2cccnc2)=NO1` (stereo not drawn) [Compound 304], the “% Inhibition of T cell blast formation” value under setting [2] is reported as 36%.
Still for that read-out and setting: with `O=C(Nc1ccc(C(=O)N2CCC(c3ccccc3)CC2)cc1)C1CC(c2cccnc2)=NO1` (stereo not drawn) [Compound 307] the figure was 41%.
As to `NC(=O)C(c1ccc(Cl)cc1)c1ccc(NC(=O)C2CC(c3cccnc3)=NO2)cc1Cl` (stereo not drawn) [Compound 309], under setting [1], the “% Inhibition of T cell blast formation” value came out at 92%.
In the case of `NC(=O)C(c1ccc(Cl)cc1Cl)c1ccc(NC(=O)C2CC(c3cccnc3)=NO2)cc1Cl` (stereo not drawn) [Compound 310], the “% Inhibition of T cell blast formation” value under setting [2] worked out at 64%.
Take `NC(=O)C(c1ccccc1)c1ccc(NC(=O)C2CC(c3cccnc3)=NO2)cc1` (stereo not drawn) [Compound 312]: the “% Inhibition of T cell blast formation” value under setting [1] came out at 93%.
Turning to `CN(C)Cc1csc(NC(=O)C(c2ccccc2)c2ccc(NC(=O)C3CC(c4cccnc4)=NO3)cc2)n1` (stereo not drawn) [Compound 314], under setting [2], the “% Inhibition of T cell blast formation” value was 58%.
Same read-out and setting: with `O=C(Nc1ccc(C(C(=O)NCCN2CCOCC2)c2ccccc2)cc1)C1CC(c2cccnc2)=NO1` (stereo not drawn) [Compound 325] the figure was 43%.
As for `O=C(c1ccccc1)c1ccc(NC(=O)C2CC(c3cccnc3)=NO2)nc1` (stereo not drawn) [Compound 371], the “% Inhibition of T cell blast formation” value under setting [1] was 62%.
Regarding `O=C(Nc1ccc(Sc2ccccc2)cc1)C1CC(c2cccnc2)=NO1` (stereo not drawn) [Compound 374], the “% Inhibition of T cell blast formation” value under setting [3] is 85%.
Turning to `O=C(Nc1ccc(Nc2ccc(S(=O)(=O)C(F)(F)F)cc2)cc1)C1CC(c2cccnc2)=NO1` (stereo not drawn) [Compound 376], the “% Inhibition of T cell blast formation” value under setting [2] is recorded as 69%.
In the case of `O=C(Nc1ccc(Nc2ccccc2)cc1)C1CC(c2cccnc2)=NO1` (stereo not drawn) [Compound 377], under setting [1], the “% Inhibition of T cell blast formation” value worked out at 85%.
On to `O=C(Nc1ccc(C(=O)N2CCN(c3ccccc3)CC2)cc1)C1CC(c2cccnc2)=NO1` (stereo not drawn) [Compound 379], for which, under setting [2], the “% Inhibition of T cell blast formation” value is 51%.
For `O=C(CCc1ccccc1)c1ccc(NC(=O)C2CC(c3cccnc3)=NO2)cc1` (stereo not drawn) [Compound 380], the “% Inhibition of T cell blast formation” value under setting [1] turned out to be 67%.
On to `O=C(c1ccc(NC(=O)C2CC(c3cccnc3)=NO2)cc1)c1ccc(OC(F)(F)F)cc1` (stereo not drawn) [Compound 384], for which the “% Inhibition of T cell blast formation” value under setting [2] turned out to be 68%.
Take `O=C(c1ccc(NC(=O)C2CC(c3cccnc3)=NO2)cc1)c1c(F)cccc1F` (stereo not drawn) [Compound 385]: under setting [2], the “% Inhibition of T cell blast formation” value came out at 69%.
For `Cn1cc(C(=O)c2ccc(NC(=O)C3CC(c4cccnc4)=NO3)cc2)cn1` (stereo not drawn) [Compound 386], the “% Inhibition of T cell blast formation” value under setting [2] is given as 38%.
The same measure, in the same setting: with `O=C(c1ccc(NC(=O)C2CC(c3cccnc3)=NO2)cc1)c1cccnc1` (stereo not drawn) [Compound 387] the figure was 78%.
In the case of `O=C(c1ccncc1)c1ccc(NC(=O)C2CC(c3cccnc3)=NO2)cc1` (stereo not drawn) [Compound 388], under “Test Dose 1 × 10^−7 (unit not given)”, the “% Inhibition of T cell blast formation” value is listed as 74%.
For the compound `O=C(c1ccc(NC(=O)C2CC(c3cccnc3)=NO2)cc1)c1ccc2c(c1)OCO2` (stereo not drawn) [Compound 389], the “% Inhibition of T cell blast formation” value under setting [2] was 59%.
`COc1ccccc1C(=O)c1ccc(NC(=O)C2CC(c3cccnc3)=NO2)cc1` (stereo not drawn) [Compound 390]: the “% Inhibition of T cell blast formation” value under setting [1] is on record as 85%.
As for `O=C(c1ccc(NC(=O)C2CC(c3cccnc3)=NO2)cc1)c1ccc2ccccc2n1` (stereo not drawn) [Compound 392], under setting [1], the “% Inhibition of T cell blast formation” value is listed as 80%.
Take `O=C(c1ccc(NC(=O)C2CC(c3cccnc3)=NO2)cc1)c1cnc2ccccc2c1` (stereo not drawn) [Compound 393]: the “% Inhibition of T cell blast formation” value under setting [1] came out at 69%.
On the same count and under the same terms, with `COc1ccc(OC)c(C(=O)c2ccc(NC(=O)C3CC(c4cccnc4)=NO3)cc2)c1` (stereo not drawn) [Compound 395] the figure was 77%; with `COc1cc(C(=O)c2ccc(NC(=O)C3CC(c4cccnc4)=NO3)cc2)cc(OC)c1OC` (stereo not drawn) [Compound 396], 65%.
On the same count and under the same terms, with `COc1cccc(OC)c1C(=O)c1ccc(NC(=O)C2CC(c3cccnc3)=NO2)cc1` (stereo not drawn) [Compound 397] the figure was 82%.
Consider `O=C(c1ccc(NC(=O)C2CC(c3cccnc3)=NO2)cc1)c1ccc(F)cc1F` (stereo not drawn) [Compound 398], for which the “% Inhibition of T cell blast formation” value under setting [1] is 87%.
On to `O=C(Nc1ccc(C(O)c2ccncc2)cc1)C1CC(c2cccnc2)=NO1` (stereo not drawn) [Compound 407], for which, under setting [2], the “% Inhibition of T cell blast formation” value was 63%.
Still for that read-out and setting: with `O=C(Nc1ccc(C(O)c2ccc(F)cc2F)cc1)C1CC(c2cccnc2)=NO1` (stereo not drawn) [Compound 408] the figure was 71%; with `COc1ccccc1C(O)c1ccc(NC(=O)C2CC(c3cccnc3)=NO2)cc1` (stereo not drawn) [Compound 409], 88%.
In the case of `CC(O)(c1ccccc1)c1ccc(NC(=O)C2CC(c3cccnc3)=NO2)cc1` (stereo not drawn) [Compound 411, (A2)-4,5-dihydro-N-[4-(1-hydroxy-1-phenylethyl)phenyl]-3-(3-pyridinyl)-5-isoxazolecarboxamide], the “% Inhibition of T cell blast formation” value under setting [1] was found to be 77%.
Consider `O=C(Nc1ccc(C(O)c2ccccc2)cc1)[C@@H]1CC(c2cccnc2)=NO1` (stereo partly drawn) [Compound 412], for which, under setting [2], the “% Inhibition of T cell blast formation” value is recorded as 79%.
Turning to `CC(=O)OCC(C#N)(c1ccccc1)c1ccc(NC(=O)C2CC(c3cccnc3)=NO2)cc1` (stereo not drawn) [Compound 413], the “% Inhibition of T cell blast formation” value under setting [1] is reported as 85%.
For the compound `N#CC(OC(=O)c1ccccc1)(c1ccccc1)c1ccc(NC(=O)C2CC(c3cccnc3)=NO2)cc1` (stereo not drawn) [Compound 415], the “% Inhibition of T cell blast formation” value under setting [1] is 65%.
Regarding `COCCOC(c1ccccc1)c1ccc(NC(=O)C2CC(c3cccnc3)=NO2)cc1` (stereo not drawn) [Compound 416], the “% Inhibition of T cell blast formation” value under setting [1] is reported as 87%.

Source of the values: patent publication US7414048B2, “4,5-dihydro-isoxazole derivatives and their pharmaceutical use” (Janssen Pharmaceutica, N.V., priority 1998, dated 2008).
